Activity calls are given as the source filed them. The rule behind the calls is not given here.
Experiments:
Tankyrase 1/2 = molecular target: T1, Tankyrase 1/2 (Homo sapiens, UniProt Q9H2K2+O95271); assay: Inhibition of tankyrase in human DLD1 cells assessed as inhibition of Wnt gene transcription after 40 to 48 hrs by STF assay; type: cell-based; settings: dld-1
T1 sequence (Q9H2K2 whole entry): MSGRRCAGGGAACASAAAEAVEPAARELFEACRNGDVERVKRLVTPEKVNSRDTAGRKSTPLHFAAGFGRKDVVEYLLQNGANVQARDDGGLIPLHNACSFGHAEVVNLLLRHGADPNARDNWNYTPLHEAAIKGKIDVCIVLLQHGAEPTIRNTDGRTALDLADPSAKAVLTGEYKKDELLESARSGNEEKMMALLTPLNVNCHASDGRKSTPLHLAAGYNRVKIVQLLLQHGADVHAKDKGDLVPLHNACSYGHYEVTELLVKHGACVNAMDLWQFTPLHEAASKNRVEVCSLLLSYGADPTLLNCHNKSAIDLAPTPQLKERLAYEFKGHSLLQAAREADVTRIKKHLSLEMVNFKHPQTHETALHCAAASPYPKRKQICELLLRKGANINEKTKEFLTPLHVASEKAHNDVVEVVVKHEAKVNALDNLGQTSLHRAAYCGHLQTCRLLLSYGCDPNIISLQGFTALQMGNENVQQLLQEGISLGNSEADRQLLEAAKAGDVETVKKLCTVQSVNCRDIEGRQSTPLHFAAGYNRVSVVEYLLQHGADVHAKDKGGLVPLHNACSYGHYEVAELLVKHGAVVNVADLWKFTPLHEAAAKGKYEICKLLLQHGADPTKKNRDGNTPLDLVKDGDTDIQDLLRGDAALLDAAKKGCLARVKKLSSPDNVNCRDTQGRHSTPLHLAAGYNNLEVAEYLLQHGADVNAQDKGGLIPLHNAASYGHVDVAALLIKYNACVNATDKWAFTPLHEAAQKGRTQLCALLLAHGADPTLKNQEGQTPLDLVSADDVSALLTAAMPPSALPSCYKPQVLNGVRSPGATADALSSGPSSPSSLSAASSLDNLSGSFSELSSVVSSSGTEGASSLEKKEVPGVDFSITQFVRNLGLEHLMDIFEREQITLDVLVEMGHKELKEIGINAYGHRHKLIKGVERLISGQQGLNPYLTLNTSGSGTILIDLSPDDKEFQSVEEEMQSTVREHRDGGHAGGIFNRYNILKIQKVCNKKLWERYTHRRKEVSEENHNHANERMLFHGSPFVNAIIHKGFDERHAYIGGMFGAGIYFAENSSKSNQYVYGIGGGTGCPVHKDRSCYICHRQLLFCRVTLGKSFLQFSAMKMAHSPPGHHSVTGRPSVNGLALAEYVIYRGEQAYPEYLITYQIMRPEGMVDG
T1 sequence (O95271 whole entry): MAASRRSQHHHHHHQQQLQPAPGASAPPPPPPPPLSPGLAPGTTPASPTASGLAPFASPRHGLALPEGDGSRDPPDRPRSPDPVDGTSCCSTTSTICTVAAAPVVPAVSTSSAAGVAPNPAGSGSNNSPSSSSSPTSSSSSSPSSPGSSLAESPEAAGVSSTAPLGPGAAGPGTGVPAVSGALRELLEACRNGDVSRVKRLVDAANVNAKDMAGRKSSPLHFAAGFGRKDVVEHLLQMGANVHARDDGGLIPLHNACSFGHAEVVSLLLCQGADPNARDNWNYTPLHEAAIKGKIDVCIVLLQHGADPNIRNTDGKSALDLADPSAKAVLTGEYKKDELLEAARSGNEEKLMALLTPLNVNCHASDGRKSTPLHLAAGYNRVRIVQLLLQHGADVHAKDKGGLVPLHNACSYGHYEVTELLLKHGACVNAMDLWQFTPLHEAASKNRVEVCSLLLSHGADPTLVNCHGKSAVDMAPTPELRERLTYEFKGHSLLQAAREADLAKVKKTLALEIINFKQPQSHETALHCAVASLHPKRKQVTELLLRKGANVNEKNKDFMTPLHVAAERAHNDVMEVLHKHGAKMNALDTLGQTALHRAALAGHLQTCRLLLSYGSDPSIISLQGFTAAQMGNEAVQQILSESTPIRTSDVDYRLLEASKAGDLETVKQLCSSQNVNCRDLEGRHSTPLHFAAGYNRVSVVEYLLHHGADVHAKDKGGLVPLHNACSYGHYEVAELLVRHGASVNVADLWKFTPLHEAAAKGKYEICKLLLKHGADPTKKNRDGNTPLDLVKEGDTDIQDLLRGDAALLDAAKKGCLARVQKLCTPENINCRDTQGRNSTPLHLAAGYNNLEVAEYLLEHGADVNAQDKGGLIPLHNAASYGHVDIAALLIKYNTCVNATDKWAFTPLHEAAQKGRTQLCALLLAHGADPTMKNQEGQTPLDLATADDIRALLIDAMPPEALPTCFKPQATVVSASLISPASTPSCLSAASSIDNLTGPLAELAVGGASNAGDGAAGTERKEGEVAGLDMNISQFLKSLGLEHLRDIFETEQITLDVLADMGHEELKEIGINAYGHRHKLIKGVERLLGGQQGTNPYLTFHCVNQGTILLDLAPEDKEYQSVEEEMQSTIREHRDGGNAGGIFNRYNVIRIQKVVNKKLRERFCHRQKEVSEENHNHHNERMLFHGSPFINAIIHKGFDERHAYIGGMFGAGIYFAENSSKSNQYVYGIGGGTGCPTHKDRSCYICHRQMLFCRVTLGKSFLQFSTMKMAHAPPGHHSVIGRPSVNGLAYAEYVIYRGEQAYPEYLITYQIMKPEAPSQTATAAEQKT

Mus musculus [1] = assay: In vivo inhibition of tankyrase in tumor of athymic nude mouse xenografted with human DLD1 cells assessed as axin accumulation at 200 mg/kg, po bid for 3 days; type: functional, organism-based; set-up: dose 200 mg/kg; settings: DLD-1
Mus musculus [2] = assay: In vivo inhibition of tankyrase-mediated axin2 gene expression in tumor of athymic nude mouse xenografted with human DLD1 cells at 200 mg/kg, po bid for 3 days by STF assay; type: functional, organism-based; set-up: dose 200 mg/kg; settings: DLD-1
Mus musculus [3] = assay: In vivo inhibition of tankyrase-mediated Wnt gene transcription in tumor of athymic nude mouse xenografted with human DLD1 cells at 200 mg/kg, po bid for 3 days by STF assay; type: functional, organism-based; set-up: dose 200 mg/kg; settings: DLD-1
[4] = molecular target: Voltage-gated inwardly rectifying potassium channel KCNH2 (Homo sapiens, UniProt Q12809); assay: Inhibition of human ERG
[5] = molecular target: C-C chemokine receptor type 2 (Homo sapiens, UniProt P41597); assay: Binding affinity to CCR2 (unknown origin)
[6] = molecular target: Muscarinic acetylcholine receptor M1 (Homo sapiens, UniProt P11229); assay: Binding affinity to muscarinic M1 receptor (unknown origin)
Cannabinoid receptor 1 = Cannabinoid receptor 1 (Homo sapiens, UniProt P21554); assay: Binding affinity to CB1 receptor (unknown origin)
Mus musculus [7] = assay: In vivo inhibition of tankyrase-mediated Wnt gene transcription in tumor of athymic nude mouse xenografted with human DLD1 cells at 50 mg/kg, po bid for 3 days by STF assay; type: functional, organism-based; set-up: dose 50 mg/kg; settings: DLD-1
D(2) dopamine receptor = D(2) dopamine receptor (Homo sapiens, UniProt P14416); assay: Binding affinity to dopamine D2 receptor (unknown origin)
[8] = Toxicity in po dosed athymic nude mouse administered bid for 8 days; type: organism-based; settings: in vivo

Muscarinic acetylcholine receptor M1, sequence (P11229 whole entry): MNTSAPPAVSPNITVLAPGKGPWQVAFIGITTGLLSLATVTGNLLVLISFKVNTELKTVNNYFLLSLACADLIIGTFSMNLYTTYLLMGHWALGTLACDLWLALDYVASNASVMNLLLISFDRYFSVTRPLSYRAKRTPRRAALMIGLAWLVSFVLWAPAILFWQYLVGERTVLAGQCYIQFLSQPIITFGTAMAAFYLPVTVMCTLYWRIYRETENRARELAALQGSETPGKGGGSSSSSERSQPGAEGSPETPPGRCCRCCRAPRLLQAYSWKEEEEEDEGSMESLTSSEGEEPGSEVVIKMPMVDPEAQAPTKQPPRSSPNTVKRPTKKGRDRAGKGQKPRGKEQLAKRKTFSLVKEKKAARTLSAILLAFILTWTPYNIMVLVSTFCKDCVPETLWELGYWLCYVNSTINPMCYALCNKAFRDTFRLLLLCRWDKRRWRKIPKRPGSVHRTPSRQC
Cannabinoid receptor 1, sequence (P21554 whole entry): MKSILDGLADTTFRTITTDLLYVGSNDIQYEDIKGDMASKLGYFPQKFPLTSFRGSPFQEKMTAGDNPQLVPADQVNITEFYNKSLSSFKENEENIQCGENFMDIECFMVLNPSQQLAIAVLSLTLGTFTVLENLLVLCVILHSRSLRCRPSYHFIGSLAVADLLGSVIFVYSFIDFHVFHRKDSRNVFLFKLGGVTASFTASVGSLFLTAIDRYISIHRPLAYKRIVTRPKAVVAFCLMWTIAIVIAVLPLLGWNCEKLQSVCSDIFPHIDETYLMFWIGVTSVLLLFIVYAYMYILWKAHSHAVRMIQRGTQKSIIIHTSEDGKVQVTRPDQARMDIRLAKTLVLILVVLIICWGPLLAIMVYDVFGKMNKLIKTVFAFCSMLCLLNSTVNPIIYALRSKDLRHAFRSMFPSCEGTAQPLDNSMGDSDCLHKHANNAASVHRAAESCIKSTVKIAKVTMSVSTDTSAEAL
Voltage-gated inwardly rectifying potassium channel KCNH2, sequence (Q12809 whole entry): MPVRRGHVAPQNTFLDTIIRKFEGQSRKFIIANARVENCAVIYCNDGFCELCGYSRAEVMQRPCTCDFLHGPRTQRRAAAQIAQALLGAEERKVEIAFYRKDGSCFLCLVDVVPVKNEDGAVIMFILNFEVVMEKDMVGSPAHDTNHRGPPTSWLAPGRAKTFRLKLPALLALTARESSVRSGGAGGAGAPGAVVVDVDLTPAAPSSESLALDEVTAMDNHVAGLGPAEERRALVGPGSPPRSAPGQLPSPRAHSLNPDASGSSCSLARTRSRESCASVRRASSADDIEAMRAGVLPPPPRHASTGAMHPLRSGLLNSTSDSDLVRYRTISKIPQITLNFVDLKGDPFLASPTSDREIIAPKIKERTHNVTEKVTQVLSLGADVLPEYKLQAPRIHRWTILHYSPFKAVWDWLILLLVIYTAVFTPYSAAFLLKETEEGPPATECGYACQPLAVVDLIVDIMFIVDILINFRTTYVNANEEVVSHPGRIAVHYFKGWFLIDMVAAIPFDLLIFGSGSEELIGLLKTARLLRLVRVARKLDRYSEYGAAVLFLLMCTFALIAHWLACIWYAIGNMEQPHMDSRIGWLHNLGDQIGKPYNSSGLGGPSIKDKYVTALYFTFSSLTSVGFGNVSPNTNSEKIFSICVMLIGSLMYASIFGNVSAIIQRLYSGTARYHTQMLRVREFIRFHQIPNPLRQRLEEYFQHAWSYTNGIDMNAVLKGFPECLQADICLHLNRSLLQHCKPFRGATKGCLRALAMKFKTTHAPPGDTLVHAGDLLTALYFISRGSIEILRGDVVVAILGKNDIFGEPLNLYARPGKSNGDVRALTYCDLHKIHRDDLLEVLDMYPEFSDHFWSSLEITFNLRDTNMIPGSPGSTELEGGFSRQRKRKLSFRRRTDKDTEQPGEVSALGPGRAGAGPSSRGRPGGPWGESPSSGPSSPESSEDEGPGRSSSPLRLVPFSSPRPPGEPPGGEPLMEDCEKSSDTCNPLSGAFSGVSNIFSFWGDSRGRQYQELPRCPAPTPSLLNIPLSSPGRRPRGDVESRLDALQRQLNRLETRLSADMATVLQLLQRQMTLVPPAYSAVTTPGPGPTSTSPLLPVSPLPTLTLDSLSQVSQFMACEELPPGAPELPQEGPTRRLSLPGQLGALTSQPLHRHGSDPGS
C-C chemokine receptor type 2, sequence (P41597 whole entry): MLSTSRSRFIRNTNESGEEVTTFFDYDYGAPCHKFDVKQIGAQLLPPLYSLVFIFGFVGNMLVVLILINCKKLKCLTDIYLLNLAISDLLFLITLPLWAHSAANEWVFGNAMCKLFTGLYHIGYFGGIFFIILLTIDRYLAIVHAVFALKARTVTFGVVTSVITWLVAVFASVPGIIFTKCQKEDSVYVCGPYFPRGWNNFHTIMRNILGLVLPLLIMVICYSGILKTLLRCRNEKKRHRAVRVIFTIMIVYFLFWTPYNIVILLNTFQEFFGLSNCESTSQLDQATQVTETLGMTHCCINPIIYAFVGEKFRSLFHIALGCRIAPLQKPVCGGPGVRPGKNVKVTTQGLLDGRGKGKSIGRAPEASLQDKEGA
D(2) dopamine receptor, sequence (P14416 whole entry): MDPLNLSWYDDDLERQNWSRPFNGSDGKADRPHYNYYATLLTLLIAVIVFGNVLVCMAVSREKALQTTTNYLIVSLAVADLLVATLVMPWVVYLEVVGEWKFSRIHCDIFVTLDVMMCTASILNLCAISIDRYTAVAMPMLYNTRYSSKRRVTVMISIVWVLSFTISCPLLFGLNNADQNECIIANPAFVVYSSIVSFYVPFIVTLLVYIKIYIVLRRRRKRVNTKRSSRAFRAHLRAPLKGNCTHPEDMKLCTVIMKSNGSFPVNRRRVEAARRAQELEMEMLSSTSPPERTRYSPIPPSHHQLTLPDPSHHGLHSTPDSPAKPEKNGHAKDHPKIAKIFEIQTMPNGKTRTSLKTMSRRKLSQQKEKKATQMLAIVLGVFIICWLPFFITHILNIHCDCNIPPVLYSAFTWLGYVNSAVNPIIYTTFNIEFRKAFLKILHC

Row | IC50 (Tankyrase 1/2) [µM] | SMILES | inhibition (Mus musculus [1]) | inhibition (Mus musculus [2]) | inhibition (Mus musculus [3]) | IC50 [4] [µM] | IC50 [5] [µM] | IC50 [6] [µM] | IC50 (Cannabinoid receptor 1) [µM] | inhibition (Mus musculus [7]) | IC50 (D(2) dopamine receptor) [µM] | MTD at 192 h [8] [mg/kg]
1 | 0.096 | CC1(C)OC(=O)N(c2ccc(-c3cnc(N)c(-c4ncccn4)c3)cc2)[C@H]1c1ccccc1 | Active | Active | Active | – | – | – | – | – | – | –
2 | – | CC1(C)OC(=O)N([C@H]2CC[C@H](c3cnc(N)c(-c4ncccn4)c3)CC2)[C@H]1c1ccccc1 | – | – | – | 10.9 | > 48.5 | > 48.5 | > 48.5 | Active | > 48.5 | 50

— ChEMBL document CHEMBL3098003, “Structure-based design of 2-aminopyridine oxazolidinones as potent and selective tankyrase inhibitors” (ACS Med Chem Lett, 2013)
